# Results as given in the NIST ThermoML archive (doi:10.1016/j.jct.2005.03.002).
# Numbers after ± are expanded uncertainties.
# Details: 101.33 kPa, Liquid
structure (smiles),measurement,setting,value
CCOS(=O)(=O)[O-].CCn1cc[n+](C)c1 [1-ethyl-3-methylimidazolium ethyl sulfate],mass density,278.2 K,1243 ± 6.1 kg/m3
same,mass density,288.2 K,1236.2 ± 6 kg/m3
same,mass density,298.2 K,1229.6 ± 5.9 kg/m3
same,mass density,308.2 K,1223 ± 5.8 kg/m3
same,mass density,318.2 K,1216.2 ± 5.7 kg/m3
same,mass density,328.2 K,1209.9 ± 5.7 kg/m3
same,mass density,338.2 K,1203.7 ± 5.6 kg/m3
